Patent US12492181B2, “Gem-disubstituted piperidine melanocortin subtype-2 receptor (MC2R) antagonists and uses thereof” (Crinetics Pharmaceuticals, Inc., priority 2019, dated 2025)

Target: T1, hMC2 receptor (crude hMC2R membranes from CRE-bla-CHO-K1 cells stably expressing hMC2 receptor and hMRAP accessory protein) (Homo sapiens, UniProt Q01718)
T1 construct: crude membrane fractions
Assay: hMC2 membrane binding assay ([125I]ACTH (1-39) Tyr23, SPA)
Details: displacement of 0.2 nM [125I]ACTH (1-39) Tyr23 from hMC2R membranes, 1.5 hours at room temperature; read-out: MC2R binding potency
Method in brief: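 Crude membranes from CRE-bla-CHO-K1 cells stably co-expressing hMC2R and hMRAP, premixed with WGA PVT SPA beads in pH 7.4 HEPES buffer (5 mM MgCl2, 1 mM CaCl2, 0.20% BSA, protease inhibitors). Compounds compete with [125I]ACTH(1-39) Tyr23, read by scintillation. Ki from non-linear regression.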

T1 sequence (Q01718 whole entry): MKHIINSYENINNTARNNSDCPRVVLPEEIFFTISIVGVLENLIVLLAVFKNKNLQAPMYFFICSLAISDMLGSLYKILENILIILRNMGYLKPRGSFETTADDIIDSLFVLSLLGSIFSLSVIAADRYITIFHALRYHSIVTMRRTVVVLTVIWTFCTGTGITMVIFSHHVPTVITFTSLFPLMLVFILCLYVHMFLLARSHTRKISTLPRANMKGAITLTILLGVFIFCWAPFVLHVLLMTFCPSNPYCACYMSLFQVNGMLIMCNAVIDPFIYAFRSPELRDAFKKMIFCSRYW
T1 sequence (Q8TCY5 whole entry partner): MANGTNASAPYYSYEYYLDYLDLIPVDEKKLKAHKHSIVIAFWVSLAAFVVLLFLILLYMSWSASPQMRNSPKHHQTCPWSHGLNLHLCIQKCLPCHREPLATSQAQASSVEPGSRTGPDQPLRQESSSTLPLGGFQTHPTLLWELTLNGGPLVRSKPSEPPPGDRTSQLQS

SMILES	Ki [nM]
CN1[C@@H]2CC[C@H]1[C@@H](NC(=O)C1(c3ccc(-c4cccn4C)nc3)CCN(c3ccc(C(F)(F)F)cc3C#N)CC1)C2 (racemic) [Compound 1-251, rac-1-[2-cyano-4-(trifluoromethyl)phenyl]-4-[6-(1-methyl-1H-pyrrol-2-yl)pyridin-3-yl]-N-[(1S,2S,4R)-7-methyl-7-azabicyclo[2.2.1]heptan-2-yl]piperidine-4-carboxamide]	10 to 100
CCOc1ccccc1-c1ccc(C2(C(=O)N[C@H]3CCN(C)C3)CCN(c3ccc(C(F)(F)F)cc3Cl)CC2)cn1 [Compound 1-97, 1-[2-chloro-4-(trifluoromethyl)phenyl]-4-[6-(2-ethoxyphenyl)pyridin-3-yl]-N-[(3S)-1-methylpyrrolidin-3-yl]piperidine-4-carboxamide]	< 10
CN1CC[C@@H](NC(=O)C2(c3ccc(-c4ccccc4C(F)(F)F)nc3)CCN(c3ccc(C(F)(F)F)cc3C#N)CC2)C1 [Compound 1-77, 1-[2-cyano-4-(trifluoromethyl)phenyl]-N-[(3R)-1-methylpyrrolidin-3-yl]-4-{6-[2-(trifluoromethyl)phenyl]pyridin-3-yl}piperidine-4-carboxamide]	< 10
CCOc1ncccc1-c1ccc(C2(C(=O)NC3CN(C)C3)CCN(c3ccc(C(F)(F)F)cc3C#N)CC2)cn1 [Compound 1-19, 1-[2-cyano-4-(trifluoromethyl)phenyl]-4-{2′-ethoxy-[2,3′-bipyridin]-5-yl}-N-(1-methylazetidin-3-yl)piperidine-4-carboxamide]	< 10
CCOc1ccccc1-c1ncc(C2(C(=O)N[C@H]3CCN(C)C3)CCN(c3ccc(C(F)(F)F)cc3F)CC2)cc1F [Compound 1-200, 4-[6-(2-ethoxyphenyl)-5-fluoropyridin-3-yl]-1-[2-fluoro-4-(trifluoromethyl)phenyl]-N-[(3S)-1-methylpyrrolidin-3-yl]piperidine-4-carboxamide]	< 10
CN1CC(CNC(=O)C2(c3ccc(-c4cccn4C)nc3)CCN(c3ccc(C(F)(F)F)cc3C#N)CC2)C1 [Compound 1-220, 1-[2-cyano-4-(trifluoromethyl)phenyl]-4-[6-(1-methyl-1H-pyrrol-2-yl)pyridin-3-yl]-N-[(1-methylazetidin-3-yl)methyl]piperidine-4-carboxamide]	< 10
CN1CC[C@H](NC(=O)C2(c3ccc(-c4cccn4C)nn3)CCN(c3ccc(Cl)cc3C#N)CC2)C1 [Compound 1-170, 1-(4-chloro-2-cyanophenyl)-4-[6-(1-methyl-1H-pyrrol-2-yl)pyridazin-3-yl]-N-[(3S)-1-methylpyrrolidin-3-yl]piperidine-4-carboxamide]	< 10

The next lines start with the values.

Ki [nM]	SMILES
< 10	COc1ccccc1-c1ccc(C2(C(=O)NC[C@@H]3C[C@H](F)CN3C)CCN(c3ccc(C(F)(F)F)cc3C#N)CC2)cn1 [Compound 1-249, 1-[2-cyano-4-(trifluoromethyl)phenyl]-N-{[(2S,4S)-4-fluoro-1-methylpyrrolidin-2-yl]methyl}-4-[6-(2-methoxyphenyl)pyridin-3-yl]piperidine-4-carboxamide]
100 to 1000	CN1CC(F)(F)C[C@@H]1CNC(=O)C1(c2ccc(-c3cccn3C)nc2)CCN(c2ccc(C(F)(F)F)cc2C#N)CC1 [Compound 1-280, 1-[2-cyano-4-(trifluoromethyl)phenyl]-N-{[(2R)-4,4-difluoro-1-methylpyrrolidin-2-yl]methyl}-4-[6-(1-methyl-1H-pyrrol-2-yl)pyridin-3-yl]piperidine-4-carboxamide]
< 10	COc1ncccc1-c1ccc(C2(C(=O)NCCN(C)C)CCN(c3ccc(C(F)(F)F)cc3Cl)CC2)cn1 [Compound 1-273, 1-[2-chloro-4-(trifluoromethyl)phenyl]-N-[2-(dimethylamino)ethyl]-4-{2′-methoxy-[2,3′-bipyridin]-5-yl}piperidine-4-carboxamide]
< 10	CCOc1ccccc1-c1ccc(C2(NC(=O)CCN(C)C)CCN(c3ccc(C(F)(F)F)cc3C#N)CC2)cn1 [Compound 2-36, N-{1-[2-cyano-4-(trifluoromethyl)phenyl]-4-[6-(2-ethoxyphenyl)pyridin-3-yl]piperidin-4-yl}-3-(dimethylamino)propanamide]
